Source: US8853412B2, “Pyrrolidinone derivatives as GPR119 modulators for the treatment of diabetes, obesity, dyslipidemia and related disorders” (Sanofi, priority 2012, dated 2014)

Target: T1, human GPR119 (Homo sapiens, UniProt Q8TDV5)
T1 construct: expressed in transfected cells; host or cells: HEK-293 cell line stably expressing recombinant GPR119
T1 sequence (Q8TDV5 1-335): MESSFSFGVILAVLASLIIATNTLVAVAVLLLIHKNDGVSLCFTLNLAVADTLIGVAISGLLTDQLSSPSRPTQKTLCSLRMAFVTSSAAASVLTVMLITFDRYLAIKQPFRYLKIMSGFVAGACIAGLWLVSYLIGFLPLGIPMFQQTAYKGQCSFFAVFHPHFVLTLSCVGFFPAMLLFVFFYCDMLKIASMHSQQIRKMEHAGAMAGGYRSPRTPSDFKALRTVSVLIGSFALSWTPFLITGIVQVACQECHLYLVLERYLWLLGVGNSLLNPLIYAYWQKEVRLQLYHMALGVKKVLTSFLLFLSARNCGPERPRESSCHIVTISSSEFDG
Experiment: Functional cellular assay measuring GPR119-mediated cAMP release (HTRF), HEK-293 cells stably expressing recombinant GPR119
Format: cell-based
Conditions: cell line expressing human GPR119; cAMP response, 30 minutes at room temperature
Protocol: Functional Cellular Assays Measuring GPR119-Mediated cAMP Release.
Compounds of the invention, which are agonists of GPR119, were characterized by functional assays measuring the cAMP response of HEK-293 cell lines stably expressing recombinant GPR119 from man, mouse or rat, or by using a hamster cell line HIT-T15 expressing GPR119 endogenously. The cAMP content was determined using a kit based on homogenous time-resolved fluorescence (HTRF) from Cisbio Corp. (cat. no. 62AM4PEC). For preparation, cells were split into T175 culture flasks and grown to near confluency in medium (DMEM/10% FCS for HEK-293 cells, and F-12K medium/10% horse serum/2.5% FCS for HIT-T15 cells, respectively). Medium was then removed and cells washed with PBS lacking calcium and magnesium ions, followed by proteinase treatment with accutase (Sigma-Aldrich, cat. no. A6964). Detached cells were washed and resuspended in assay buffer (1×HBSS; 20 mM HEPES, 0.1% BSA, 2 mM IBMX) and cellular density determined. They were then diluted to 400000 cells/mL and 25 μL-aliquots dispensed to the wells of 96-well plates. For measurement, 25 μL of test compound in assay buffer was added and incubated for 30 minutes at room temperature. After addition of HTRF reagents diluted in lysis buffer, the plates were incubated for 1 hour, followed by measuring the fluorescence ratio at 665 vs. 620 nm. Potency of the agonists was quantified by determining the concentrations that caused 50% of the maximal response/activation (EC50). See Table 10 for exemplary data obtained using the cell line expressing human GPR119.

| SMILES | EC50 |
| --- | --- |
| CCC(C)COc1ccc(O[C@@H]2CCN(c3cc(F)c4c(c3)C(=O)CC4)C2=O)cn1 (some centres unmarked) [Example 2-10] | 5 nM |
| COCCOc1ccc(O[C@@H]2CCN(c3cc(F)c4c(c3)C(=O)CC4)C2=O)cn1 [Example 2-13] | 141 nM |
| CCC(C)Oc1ccc(O[C@@H]2CCN(c3cc(F)c4c(c3)C(=O)CC4)C2=O)cn1 (some centres unmarked) [Example 2-14] | 12 nM |
| O=C1CCc2c(F)cc(N3CC[C@@H](Oc4ccc(OCCOCCO)nc4)C3=O)cc21 [Example 2-15] | 289 nM |
| O=C1CCc2c(F)cc(N3CC[C@@H](Oc4ccc(OCCCCO)nc4)C3=O)cc21 [Example 2-16] | 832 nM |
| CCCCCOc1ccc(O[C@@H]2CCN(c3cc(F)c4c(c3)C(=O)CC4)C2=O)cn1 [Example 2-17] | 16 nM |
| CCCOc1ccc(O[C@@H]2CCN(c3cc(F)c4c(c3)C(=O)CC4)C2=O)cn1 [Example 2-18] | 5 nM |
| CC(C)=CCOc1ccc(O[C@@H]2CCN(c3cc(F)c4c(c3)C(=O)CC4)C2=O)cn1 [Example 2-20] | 33 nM |
| O=C1CCc2c(F)cc(N3CC[C@@H](Oc4ccc(OCCn5cccn5)nc4)C3=O)cc21 [Example 2-21] | 456 nM |
| CC(C)CCOc1ccc(O[C@@H]2CCN(c3cc(F)c4c(c3)C(=O)CC4)C2=O)cn1 [Example 2-22] | 9 nM |
| CC(C)Oc1ccc(O[C@@H]2CCN(c3cc(F)c4c(c3)C(=O)CC4)C2=O)cn1 [Example 2-24, (R)-1-(7-Fluoro-3-oxo-indan-5-yl)-3-(6-isopropoxy-pyridin-3-yloxy)-pyrrolidin-2-one] | 13 nM |
| O=C1CCc2c(F)cc(N3CC[C@@H](Oc4ccc(OCC5CCCO5)nc4)C3=O)cc21 (some centres unmarked) [Example 2-25] | 13000 nM |
| CCOCCOc1ccc(O[C@@H]2CCN(c3cc(F)c4c(c3)C(=O)CC4)C2=O)cn1 [Example 2-27] | 277 nM |
| O=C1CCc2c(F)cc(N3CC[C@@H](Oc4ccc(OCc5ccncc5)nc4)C3=O)cc21 [Example 2-28] | 1410 nM |
| O=C1CC[C@@H](COc2ccc(O[C@@H]3CCN(c4cc(F)c5c(c4)C(=O)CC5)C3=O)cn2)N1 [Example 2-30] | 16300 nM |
| CCC(C)CCOc1ccc(O[C@@H]2CCN(c3cc(F)c4c(c3)C(=O)CC4)C2=O)cn1 (some centres unmarked) [Example 2-34] | 23 nM |
| O=C1CCc2c(F)cc(N3CC[C@@H](Oc4ccc(OCC(F)F)nc4)C3=O)cc21 [Example 2-35] | 26 nM |
| O=C1CCc2c(F)cc(N3CC[C@@H](Oc4ccc(OCCn5ccnc5)nc4)C3=O)cc21 [Example 2-36] | 44200 nM |
| Cn1ccnc1COc1ccc(O[C@@H]2CCN(c3cc(F)c4c(c3)C(=O)CC4)C2=O)cn1 [Example 2-37] | 24300 nM |
| O=C1CC[C@H](COc2ccc(O[C@@H]3CCN(c4cc(F)c5c(c4)C(=O)CC5)C3=O)cn2)O1 [Example 2-38] | 947 nM |

| SMILES | EC50 |
| --- | --- |
| O=C1CCc2c(F)cc(N3CC[C@@H](Oc4ccc(OCCC(F)(F)F)nc4)C3=O)cc21 [Example 2-39] | 18 nM |
| CSCCCOc1ccc(O[C@@H]2CCN(c3cc(F)c4c(c3)C(=O)CC4)C2=O)cn1 [Example 2-40] | 103 nM |
| Cc1cc(COc2ccc(O[C@@H]3CCN(c4cc(F)c5c(c4)C(=O)CC5)C3=O)cn2)no1 [Example 2-41] | 360 nM |
| CCOC(=O)COc1ccc(O[C@@H]2CCN(c3cc(F)c4c(c3)C(=O)CC4)C2=O)cn1 [Example 2-43] | 62 nM |
| CC(C)C(C)Oc1ccc(O[C@@H]2CCN(c3cc(F)c4c(c3)C(=O)CC4)C2=O)cn1 (some centres unmarked) [Example 2-46] | 37 nM |
| CCC(COC)Oc1ccc(O[C@@H]2CCN(c3cc(F)c4c(c3)C(=O)CC4)C2=O)cn1 (some centres unmarked) [Example 2-47] | 138 nM |
| O=C1CCc2c(F)cc(N3CC[C@@H](Oc4ccc(OCc5cnccn5)nc4)C3=O)cc21 [Example 2-52] | 1190 nM |
| CCOCCCOc1ccc(O[C@@H]2CCN(c3cc(F)c4c(c3)C(=O)CC4)C2=O)cn1 [Example 2-53] | 21 nM |
| O=C1CCc2c(F)cc(N3CC[C@@H](Oc4ccc(OCCN5CCCC5=O)nc4)C3=O)cc21 [Example 2-56] | 9300 nM |
| O=C1CCc2c(F)cc(N3CC[C@@H](Oc4ccc(OCC5CCCC5)nc4)C3=O)cc21 [Example 2-57] | 9 nM |
| CC(C)N(CCOc1ccc(O[C@@H]2CCN(c3cc(F)c4c(c3)C(=O)CC4)C2=O)cn1)C(C)C [Example 2-58] | 7530 nM |
| CN1CCC[C@H]1COc1ccc(O[C@@H]2CCN(c3cc(F)c4c(c3)C(=O)CC4)C2=O)cn1 [Example 2-59] | 2220 nM |
| CC1(COc2ccc(O[C@@H]3CCN(c4cc(F)c5c(c4)C(=O)CC5)C3=O)cn2)CC1 [Example 2-60] | 11 nM |
| COC(C)(C)CCOc1ccc(O[C@@H]2CCN(c3cc(F)c4c(c3)C(=O)CC4)C2=O)cn1 [Example 2-62] | 68 nM |
| O=C1CCc2c(F)cc(N3CC[C@@H](Oc4ccc(OC5CCCC5)nc4)C3=O)cc21 [Example 2-63] | 5 nM |
| O=C1CCc2c(F)cc(N3CC[C@@H](Oc4ccc(OCCCCCO)nc4)C3=O)cc21 [Example 2-65] | 2380 nM |
| O=C1CCc2c(F)cc(N3CC[C@@H](Oc4ccc(OCCN5CCCC5)nc4)C3=O)cc21 [Example 2-67] | 15000 nM |
| O=C1CCc2c(F)cc(N3CC[C@@H](Oc4ccc(O[C@H]5CCOC5)nc4)C3=O)cc21 [Example 2-68] | 90 nM |
| CO[C@@H](C)COc1ccc(O[C@@H]2CCN(c3cc(F)c4c(c3)C(=O)CC4)C2=O)cn1 [Example 2-69] | 29 nM |

The next lines start with the values.

| EC50 | SMILES |
| --- | --- |
| 17 nM | CCOc1ccc(O[C@@H]2CCN(c3cc(F)c4c(c3)C(=O)CC4)C2=O)cn1 [Example 2-08, (R)-3-(6-Ethoxy-pyridin-3-yloxy)-1-(7-fluoro-3-oxo-indan-5-yl)-pyrrolidin-2-one] |
| 16 nM | CC(Oc1ccc(O[C@@H]2CCN(c3cc(F)c4c(c3)C(=O)CC4)C2=O)cn1)C1CC1 (some centres unmarked) [Example 2-09] |
| 29 nM | O=C1CCc2c(F)cc(N3CC[C@@H](Oc4ccc(OC5CCCOC5)nc4)C3=O)cc21 (some centres unmarked) [Example 2-11] |
| 99 nM | CC1(COc2ccc(O[C@@H]3CCN(c4cc(F)c5c(c4)C(=O)CC5)C3=O)cn2)COC1 [Example 2-12] |
| 858 nM | O=C1CCc2c(F)cc(N3CC[C@@H](Oc4ccc(OC5CCC(O)C5)nc4)C3=O)cc21 (some centres unmarked) [Example 2-19] |
| 7 nM | CC(C)COc1ccc(O[C@@H]2CCN(c3cc(F)c4c(c3)C(=O)CC4)C2=O)cn1 [Example 2-23] |
| 11 nM | CC1CC1COc1ccc(O[C@@H]2CCN(c3cc(F)c4c(c3)C(=O)CC4)C2=O)cn1 (some centres unmarked) [Example 2-26] |
| 11600 nM | O=C1CC[C@H](COc2ccc(O[C@@H]3CCN(c4cc(F)c5c(c4)C(=O)CC5)C3=O)cn2)N1 [Example 2-29] |
| 1470 nM | O=C1CCc2c(F)cc(N3CC[C@@H](Oc4ccc(OCc5cccnc5)nc4)C3=O)cc21 [Example 2-31] |
| 103 nM | O=C1CCc2c(F)cc(N3CC[C@@H](Oc4ccc(OCC5COCO5)nc4)C3=O)cc21 (some centres unmarked) [Example 2-32] |
| 71 nM | COC(C)CCOc1ccc(O[C@@H]2CCN(c3cc(F)c4c(c3)C(=O)CC4)C2=O)cn1 (some centres unmarked) [Example 2-33] |
| 1310 nM | O=C1CCc2c(F)cc(N3CC[C@@H](Oc4ccc(OCCCO)nc4)C3=O)cc21 [Example 2-42] |
| 46 nM | O=C1CCc2c(F)cc(N3CC[C@@H](Oc4ccc(OC(CF)CF)nc4)C3=O)cc21 [Example 2-44] |
| 25 nM | CC(C)CC(C)Oc1ccc(O[C@@H]2CCN(c3cc(F)c4c(c3)C(=O)CC4)C2=O)cn1 (some centres unmarked) [Example 2-45] |
| 64 nM | O=C1CCc2c(F)cc(N3CC[C@@H](Oc4ccc(OCCF)nc4)C3=O)cc21 [Example 2-48] |
| 94 nM | CCC(Oc1ccc(O[C@@H]2CCN(c3cc(F)c4c(c3)C(=O)CC4)C2=O)cn1)C(C)C (some centres unmarked) [Example 2-49] |
| 1050 nM | CC(CCO)CCOc1ccc(O[C@@H]2CCN(c3cc(F)c4c(c3)C(=O)CC4)C2=O)cn1 (some centres unmarked) [Example 2-50] |
| 77 nM | CCOCC(C)Oc1ccc(O[C@@H]2CCN(c3cc(F)c4c(c3)C(=O)CC4)C2=O)cn1 (some centres unmarked) [Example 2-51] |
| 154 nM | O=C1CCc2c(F)cc(N3CC[C@@H](Oc4ccc(OCC5CCCCO5)nc4)C3=O)cc21 (some centres unmarked) [Example 2-54] |
| 7 nM | O=C1CCc2c(F)cc(N3CC[C@@H](Oc4ccc(OCC5CCC5)nc4)C3=O)cc21 [Example 2-55] |
| 15 nM | O=C1CCc2c(F)cc(N3CC[C@@H](Oc4ccc(OCCCF)nc4)C3=O)cc21 [Example 2-61] |
| 54 nM | CCC(CC)Oc1ccc(O[C@@H]2CCN(c3cc(F)c4c(c3)C(=O)CC4)C2=O)cn1 [Example 2-64] |
| 16 nM | O=C1CCc2c(F)cc(N3CC[C@@H](Oc4ccc(OC5CCCCC5)nc4)C3=O)cc21 [Example 2-66] |
